In patent publication US6964974B2, “2,3-oxidosqualene-lanosterol cyclase inhibitors” (Hoffmann-La Roche Inc., priority 2000, dated 2005) one finds melting point data, which are given here for 1 compound.

In general, melting point refers to the temperature, or range, at which the solid turns liquid. With `CCCN(C)CCCCC1CCN(S(=O)(=O)c2ccc(C(F)(F)F)cc2)CC1` [Example 20.1, Methyl-propyl-{4-[1-(4-trifluoromethyl-benzenesulfonyl)-piperidin-4-yl]-butyl}-amine], the melting point was 73 to 74.8 °C.
